# Laboratory results: PMC5929560, “Deciphering the binding behavior of flavonoids to the cyclin dependent kinase 6/cyclin D complex” (PLoS ONE, 2018)
# Biological target: CDK6 (Homo sapiens, UniProt Q00534)
# Assay: Filter-binding kinase assay with [γ-32P]ATP and histone H1
# Format: biochemical
# Conditions: 25 μM ATP, 20 min at 30°C, triplicate
# Protocol: To quantify the inhibitory activities of flavonoids on CDK6, the filter-binding assay was performed in 96-well filter plates. The total volume for each well was 0.1mL containing a final concentration of 20mM Tris-HCl (pH 7.4), 50mM NaCl, 1mM dithiothreitol, 10mM MgCl2, 25μM ATP (containing 0.25μCi of [γ-^32P]ATP), 0.1μg of CDK6, 10μg of histone H1, and appropriate dilutions of inhibitor. The reaction was initiated by the addition of [γ-^32P]ATP, and then incubated for 20min at 30°C. Samples were applied to P81 phosphocellulose papers strips (Whatman), and the strips were washed in phosphoric acid solution. The radioactivity was measured by liquid scintillation spectrometry. IC50 values were calculated from the dose-response curves. All experiments were carried out in triplicate.
# CDK6 (Homo sapiens, UniProt Q00534), sequence (Q00534 whole entry): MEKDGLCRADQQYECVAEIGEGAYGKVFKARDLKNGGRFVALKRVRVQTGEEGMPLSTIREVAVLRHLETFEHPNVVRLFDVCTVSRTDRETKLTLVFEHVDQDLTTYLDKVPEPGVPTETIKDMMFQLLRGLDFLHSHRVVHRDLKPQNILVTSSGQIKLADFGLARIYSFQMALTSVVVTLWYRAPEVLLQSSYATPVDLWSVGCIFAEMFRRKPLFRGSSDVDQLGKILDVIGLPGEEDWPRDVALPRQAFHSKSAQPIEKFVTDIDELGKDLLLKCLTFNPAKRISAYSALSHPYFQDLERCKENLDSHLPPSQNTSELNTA
# CDK6 (Homo sapiens, UniProt Q00534), sequence (P30281 whole entry partner): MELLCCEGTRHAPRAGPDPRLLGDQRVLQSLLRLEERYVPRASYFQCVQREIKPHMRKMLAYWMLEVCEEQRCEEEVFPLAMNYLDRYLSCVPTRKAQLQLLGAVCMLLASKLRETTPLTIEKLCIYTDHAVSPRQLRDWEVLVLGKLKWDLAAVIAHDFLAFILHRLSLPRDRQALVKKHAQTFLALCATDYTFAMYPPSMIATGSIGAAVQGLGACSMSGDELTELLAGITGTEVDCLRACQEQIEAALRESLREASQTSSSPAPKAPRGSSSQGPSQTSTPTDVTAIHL
row,Structure (SMILES),IC50
1,"O=c1c(O)c(-c2ccccc2)oc2cc(O)cc(O)c12 [M04, Galangin]",52 ± 2.8 µM
2,"O=c1c(O)c(-c2ccc(O)c(O)c2)oc2cc(O)cc(O)c12 [M06, Quercetin]",26.3 ± 1.9 µM
3,"O=c1cc(-c2ccc(O)c(O)c2)oc2cc(O)ccc12 [M15, 3’, 4’, 7-trihydroxyflavone]",23.3 ± 1.5 µM
4,"O=c1c(-c2ccc(O)cc2)coc2cc(O)cc(O)c12 [M05, Genistein]",38 ± 2.1 µM
5,"O=c1c(O)c(-c2ccc(O)cc2)oc2cc(O)cc(O)c12 [M07, Kaempferol]",19.8 ± 1.6 µM
6,"O=c1cc(-c2ccccc2)oc2cc(O)cc(O)c12 [M01, Chrysin]",4.5 ± 0.4 µM

# Tested on: CDK6
# Assay: not given
# Conditions: cited from earlier work
row,Structure (SMILES),IC50
1,"O=c1c(O)c(-c2ccc(O)c(O)c2)oc2cc(O)cc(O)c12 [M06, Quercetin]",26 µM
2,"O=c1c(O)c(-c2ccc(O)c(O)c2)oc2cc(O)ccc12 [M03, Fisetin]",0.85 µM
